Source: PubChem BioAssay (NCI)
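Briefly, cells in 96-well plates were exposed to five compound concentrations for 48 h, and endpoints were estimated by linear interpolation. TGI marks complete inhibition of growth.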

Key:
Experiment in all cases: NCI anticancer screen, dose series, 48 h
[1] = test system: HS 578T breast
[2] = test system: LOX IMVI melanoma
[3] = test system: DU-145 prostate
[4] = test system: NCI/ADR-RES ovarian
[5] = test system: MALME-3M melanoma
[6] = test system: MCF7 breast
[7] = test system: SW-620 colon
[8] = test system: 786-0 renal
[9] = test system: HOP-62 NSCLC
[10] = test system: SN12C renal
[11] = test system: M14 melanoma
[12] = test system: HL-60(TB) leukemia
[13] = test system: CAKI-1 renal
[14] = test system: SK-MEL-28 melanoma
[15] = test system: A549 NSCLC
[16] = test system: SK-MEL-2 melanoma
[17] = test system: RPMI-8226 leukemia
[18] = test system: UACC-62 melanoma
[19] = test system: SF-295 CNS
[20] = test system: SK-OV-3 ovarian

Row | SMILES | TGI [1] [µM] | TGI [2] [µM] | TGI [3] [µM] | TGI [4] [µM] | TGI [5] [µM] | TGI [6] [µM] | TGI [7] [µM] | TGI [8] [µM] | TGI [9] [µM] | TGI [10] [µM] | TGI [11] [µM] | TGI [12] [µM] | TGI [13] [µM] | TGI [14] [µM] | TGI [15] [µM] | TGI [16] [µM] | TGI [17] [µM] | TGI [18] [µM] | TGI [19] [µM] | TGI [20] [µM]
1 | CCN(CC)CCSc1n[nH]c(-c2c[nH]c3nc(C)ccc3c2=O)n1 | > 100 | > 100 | > 100 | > 100 | > 100 | > 100 | > 100 | > 100 | > 100 | > 100 | > 100 | > 100 | > 100 | > 100 | > 100 | > 100 | > 100 | > 100 | > 100 | –
2 | CCOc1ncn(-c2ccc(NC(=S)Nc3cnccn3)cc2)n1 | > 10 | – | > 10 | > 10 | > 10 | > 10 | – | > 10 | – | > 10 | > 10 | > 10 | – | – | > 10 | > 10 | – | > 10 | > 10 | > 10
3 | N#Cc1c(N)c2c(c(-c3ccccc3)c1-c1ccccc1)C(=O)N(Nc1ccccc1)C2=O | > 100 | 86.8 | > 100 | > 100 | > 100 | > 100 | > 100 | > 100 | – | > 100 | 87.4 | > 100 | > 100 | > 100 | > 100 | > 100 | > 100 | > 100 | > 100 | –
4 | C[n+]1c2ccccc2c(C(=O)NC(CCCN=C(N)N)C(=O)O)c2ccccc21 (configuration not stated) | > 100 | > 100 | > 100 | > 100 | > 100 | > 100 | > 100 | > 100 | > 100 | > 100 | > 100 | – | – | > 100 | > 100 | > 100 | > 100 | > 100 | > 100 | > 100
5 | c1ccc(CN2CCCN3CCN(CCCN(Cc4ccccc4)CC3)CC2)cc1 | > 100 | > 100 | > 100 | > 100 | – | > 100 | > 100 | > 100 | > 100 | > 100 | > 100 | 82.3 | > 100 | > 100 | > 100 | 49.9 | > 100 | > 100 | > 100 | > 100
6 | COC(=O)c1ccc(/C=C2\Cc3ccccc3C2=O)cc1 | > 100 | – | > 100 | > 100 | – | > 100 | > 100 | > 100 | > 100 | > 100 | > 100 | > 100 | > 100 | > 100 | > 100 | – | > 100 | > 100 | > 100 | > 100
7 | CN(C(=O)[C@@H](NC(=O)OC(C)(C)C)c1ccccc1)[C@H]1CCCC[C@@H]1N1CCCC1 | > 100 | – | > 100 | > 100 | – | > 100 | > 100 | > 100 | > 100 | > 100 | > 100 | > 100 | > 100 | > 100 | > 100 | > 100 | > 100 | > 100 | > 100 | > 100
8 | COC(=O)/C(=N\N)C(C(=O)C(=O)Nc1cccc([N+](=O)[O-])c1)c1nc2ccc(C(=O)c3ccccc3)cc2[nH]c1=O (configuration not stated) | > 100 | > 100 | > 100 | > 100 | – | > 100 | > 100 | > 100 | > 100 | > 100 | > 100 | > 100 | > 100 | > 100 | > 100 | > 100 | – | > 100 | > 100 | > 100
9 | CC(C)(O)/C=C\P(C)(=O)c1ccccc1 (configuration not stated) | > 100 | > 100 | > 100 | > 100 | > 100 | > 100 | > 100 | > 100 | > 100 | > 100 | > 100 | – | > 100 | > 100 | > 100 | > 100 | > 100 | > 100 | > 100 | > 100
10 | Cc1nc2c(=O)n(C)c(=O)nc-2n(CCO)c1C | > 100 | > 100 | > 100 | > 100 | > 100 | > 100 | > 100 | > 100 | > 100 | > 100 | > 100 | – | > 100 | > 100 | > 100 | > 100 | > 100 | > 100 | > 100 | > 100
11 | Brc1cccc(Nc2ncnc3sc4c(c23)CCC(Nc2cccc(Br)c2)C4)c1 (configuration not stated) | > 100 | > 100 | > 100 | > 100 | > 100 | > 100 | > 100 | > 100 | > 100 | > 100 | > 100 | – | > 100 | > 100 | > 100 | > 100 | – | > 100 | > 100 | > 100
12 | O=S(Nc1ccccc1)c1ccc(-c2ccccc2)cc1 (configuration not stated) | > 100 | > 100 | > 100 | > 100 | > 100 | > 100 | > 100 | > 100 | > 100 | > 100 | – | > 100 | – | > 100 | > 100 | – | > 100 | > 100 | > 100 | –
13 | COc1cc(CNc2nc3ccccc3n2Cc2ccccc2)cc(CN2CCOCC2)c1O | 80.9 | 30.7 | > 100 | 65.6 | 34 | 79.5 | > 100 | 31.6 | 65.2 | > 100 | 40.4 | – | > 100 | 34.6 | > 100 | 47.5 | > 100 | 45.2 | 41.6 | > 100
14 | CCc1cccc(CC)c1Nc1nc2c(s1)C(=O)c1ccccc1C2=O | 71.4 | 36 | 45.3 | – | 31.5 | 52 | 74.6 | 36 | 30.2 | 47.9 | 32.8 | > 100 | 30 | 35.9 | > 100 | 39.8 | > 100 | 32.3 | 27.8 | 89.8
15 | CCCC(=O)OCC1(CO)C/C(=C/CC(C(C)C)C(C)C)C(=O)O1 (configuration not stated) | > 100 | 35.8 | > 100 | > 100 | > 100 | > 100 | > 100 | > 100 | > 100 | > 100 | – | – | > 100 | > 100 | > 100 | > 100 | – | > 100 | > 100 | > 100
16 | CCOC(=O)c1c(C)noc1/N=N/N(CCO)CCO | > 100 | > 100 | > 100 | > 100 | > 100 | > 100 | > 100 | > 100 | > 100 | > 100 | > 100 | > 100 | > 100 | > 100 | > 100 | – | – | > 100 | > 100 | > 100
17 | COc1cc(/C=C2\N=C(c3ccccc3)N(c3nc4cc(C)c(C)cc4s3)C2=O)cc(OC)c1OC | 98 | 68.7 | > 100 | > 100 | – | 43 | > 100 | > 100 | 66.6 | 99.1 | > 100 | 39.7 | > 100 | > 100 | > 100 | > 100 | > 100 | > 100 | > 100 | > 100
18 | CSC1=C(C#N)C(=O)N(c2ccc(Cl)cc2)C(=O)C1C#N (configuration not stated) | > 100 | > 100 | > 100 | – | > 100 | > 100 | > 100 | > 100 | > 100 | > 100 | > 100 | > 100 | > 100 | > 100 | > 100 | > 100 | > 100 | > 100 | > 100 | > 100
19 | CC(C)Oc1c(C2(c3ccccc3O)SCCCS2)c(=O)c1=O | > 100 | > 100 | > 100 | > 100 | – | > 100 | > 100 | > 100 | > 100 | > 100 | > 100 | > 100 | > 100 | > 100 | > 100 | > 100 | – | > 100 | > 100 | > 100
20 | CC(=O)/C(N=Nc1ccc(-n2c(C)nc3ccc(Br)cc3c2=O)cc1)=C(/C)O | 91.2 | > 100 | > 100 | > 100 | – | > 100 | > 100 | > 100 | > 100 | > 100 | > 100 | > 100 | > 100 | > 100 | > 100 | > 100 | > 100 | > 100 | > 100 | > 100
21 | Cc1cc(C)c(S(=O)(=O)N(CCCCCCN)OCCCN)c(C)c1 | 30.2 | 31.3 | 31.3 | > 100 | 24 | 37.3 | 40.4 | 32.1 | 46 | 37.2 | 44.9 | 33.3 | – | 36.1 | > 100 | 36 | > 100 | 40 | 34.8 | 34
22 | CCCCCCCC/C=C\CCCCCCCC(=O)OC[C@]1(CO)CCC(=O)O1 | > 100 | > 100 | > 100 | > 100 | > 100 | > 100 | > 100 | > 100 | > 100 | > 100 | > 100 | – | > 100 | > 100 | > 100 | > 100 | – | > 100 | > 100 | > 100
23 | O=C1N(CN2CCOCC2)CN(CN2CCOCC2)C(=O)N1Cc1ccc(-c2ccc(CN3C(=O)N(CN4CCOCC4)CN(CN4CCOCC4)C3=O)cc2)cc1 | > 100 | 40.6 | 40.1 | 80.8 | 34.6 | > 100 | 30.7 | 79.4 | > 57.8 | – | 21.3 | – | 29.2 | 36.2 | 57.6 | > 51.8 | – | 37.7 | 65.6 | > 100
24 | CC(=O)/C=C(/C=N/O)c1ccccc1 | > 100 | > 100 | – | > 100 | > 100 | > 100 | > 100 | > 100 | > 100 | > 100 | > 100 | – | > 100 | > 100 | > 100 | > 100 | > 100 | > 100 | > 100 | > 100
25 | Cc1ccc(S(=O)(=O)NC(=O)NC(C(=O)O)C(C)O)cc1 (configuration not stated) | > 100 | > 100 | > 100 | > 100 | > 100 | > 100 | > 100 | > 100 | > 100 | > 100 | > 100 | > 100 | – | > 100 | > 100 | > 100 | > 100 | > 100 | > 100 | > 100
